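The compound was tested at five concentrations on cells cultured in 96-well plates, with a 48-hour exposure period. At the GI50, growth is halved. TGI marks complete inhibition of growth.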
Experiments:
Test in all cases: inhibition of tumour cell growth, NCI panel, 48 h
SF-539 CNS = tested on: SF-539 CNS
OVCAR-3 ovarian = tested on: OVCAR-3 ovarian
IGROV1 ovarian = tested on: IGROV1 ovarian
HCT-116 colon = tested on: HCT-116 colon
OVCAR-5 ovarian = tested on: OVCAR-5 ovarian
SK-MEL-28 melanoma = tested on: SK-MEL-28 melanoma
MALME-3M melanoma = tested on: MALME-3M melanoma
M14 melanoma = tested on: M14 melanoma
EKVX NSCLC = tested on: EKVX NSCLC
SR leukemia = tested on: SR leukemia
UACC-257 melanoma = tested on: UACC-257 melanoma
NCI/ADR-RES ovarian = tested on: NCI/ADR-RES ovarian
HOP-92 NSCLC = tested on: HOP-92 NSCLC
HT29 colon = tested on: HT29 colon
A498 renal = tested on: A498 renal
UACC-62 melanoma = tested on: UACC-62 melanoma
HS 578T breast = tested on: HS 578T breast
SNB-19 CNS = tested on: SNB-19 CNS
MOLT-4 leukemia = tested on: MOLT-4 leukemia
RXF 393 renal = tested on: RXF 393 renal
SN12C renal = tested on: SN12C renal
RPMI-8226 leukemia = tested on: RPMI-8226 leukemia
K-562 leukemia = tested on: K-562 leukemia
COLO 205 colon = tested on: COLO 205 colon
OVCAR-4 ovarian = tested on: OVCAR-4 ovarian
T-47D breast = tested on: T-47D breast
SF-295 CNS = tested on: SF-295 CNS
U251 CNS = tested on: U251 CNS
MDA-MB-435 = tested on: MDA-MB-435
CAKI-1 renal = tested on: CAKI-1 renal
PC-3 prostate = tested on: PC-3 prostate
SW-620 colon = tested on: SW-620 colon
UO-31 renal = tested on: UO-31 renal
NCI-H522 lung = tested on: NCI-H522 lung
LOX IMVI melanoma = tested on: LOX IMVI melanoma
HL-60(TB) leukemia = tested on: HL-60(TB) leukemia
KM12 colon = tested on: KM12 colon
HCC-2998 colon = tested on: HCC-2998 colon
HOP-62 NSCLC = tested on: HOP-62 NSCLC
MCF7 breast = tested on: MCF7 breast
786-0 renal = tested on: 786-0 renal
SF-268 CNS = tested on: SF-268 CNS
HCT-15 colon = tested on: HCT-15 colon
SK-OV-3 ovarian = tested on: SK-OV-3 ovarian
ACHN renal = tested on: ACHN renal
BT-549 breast = tested on: BT-549 breast
SK-MEL-5 melanoma = tested on: SK-MEL-5 melanoma
OVCAR-8 ovarian = tested on: OVCAR-8 ovarian
MDA-MB-231 breast = tested on: MDA-MB-231 breast
NCI-H226 lung = tested on: NCI-H226 lung
SNB-75 CNS = tested on: SNB-75 CNS
DU-145 prostate = tested on: DU-145 prostate
NCI-H460 lung = tested on: NCI-H460 lung
SK-MEL-2 melanoma = tested on: SK-MEL-2 melanoma
CCRF-CEM leukemia = tested on: CCRF-CEM leukemia
TK-10 renal = tested on: TK-10 renal

`CN(C)CCCNc1c2ccc(Cl)cc2nc2c1oc1ccccc12` gave a GI50 (SF-539 CNS) of 1.76 µM, a TGI (SF-539 CNS) of 3.39 µM and a GI50 (OVCAR-3 ovarian) of 3.45 µM. The TGI (OVCAR-3 ovarian) was 15.6 µM, the GI50 (IGROV1 ovarian) was 2.77 µM and the TGI (IGROV1 ovarian) was 7.49 µM. For the same compound, the GI50 (HCT-116 colon) was 1.42 µM, the TGI (HCT-116 colon) was 8.19 µM and the GI50 (OVCAR-5 ovarian) was 2.46 µM. The TGI (OVCAR-5 ovarian) was 7.81 µM, the GI50 (SK-MEL-28 melanoma) was 4.43 µM and the TGI (SK-MEL-28 melanoma) was 16.3 µM. It also gave a GI50 (MALME-3M melanoma) of 3.1 µM, a TGI (MALME-3M melanoma) of 10.6 µM and a GI50 (M14 melanoma) of 1.69 µM. For the same compound, the TGI (M14 melanoma) was 3.45 µM, the GI50 (EKVX NSCLC) was 3.51 µM and the TGI (EKVX NSCLC) was 21.3 µM. It also gave a GI50 (SR leukemia) of 2.34 µM, a TGI (SR leukemia) of 10.3 µM and a GI50 (UACC-257 melanoma) of 3.79 µM. The TGI (UACC-257 melanoma) was 15.2 µM, the GI50 (NCI/ADR-RES ovarian) was 1.91 µM and the TGI (NCI/ADR-RES ovarian) was 12.6 µM. It also gave a GI50 (HOP-92 NSCLC) of 1.34 µM, a TGI (HOP-92 NSCLC) of 5.13 µM and a GI50 (HT29 colon) of 1.34 µM. The TGI (HT29 colon) was 3.58 µM, the GI50 (A498 renal) was 7.55 µM and the TGI (A498 renal) was 21.2 µM. It also gave a GI50 (UACC-62 melanoma) of 5.2 µM, a TGI (UACC-62 melanoma) of 19.6 µM and a GI50 (HS 578T breast) of 3.53 µM. For the same compound, the TGI (HS 578T breast) was 22.2 µM, the GI50 (SNB-19 CNS) was 3.37 µM and the TGI (SNB-19 CNS) was 20.5 µM. It also gave a GI50 (MOLT-4 leukemia) of 0.676 µM, a TGI (MOLT-4 leukemia) of 13.2 µM and a GI50 (RXF 393 renal) of 1.64 µM. The TGI (RXF 393 renal) was 3.76 µM, the GI50 (SN12C renal) was 2.5 µM and the TGI (SN12C renal) was 11.6 µM. The GI50 (RPMI-8226 leukemia) was 2.27 µM, the TGI (RPMI-8226 leukemia) was 5.94 µM and the GI50 (K-562 leukemia) was 2.02 µM. For the same compound, the TGI (K-562 leukemia) was 11.7 µM, the GI50 (COLO 205 colon) was 1.51 µM and the TGI (COLO 205 colon) was 4.03 µM. The GI50 (OVCAR-4 ovarian) was 2.12 µM, the TGI (OVCAR-4 ovarian) was 6.89 µM and the GI50 (T-47D breast) was 4.84 µM. For the same compound, the TGI (T-47D breast) was 23.2 µM, the GI50 (SF-295 CNS) was 3.41 µM and the TGI (SF-295 CNS) was 15.3 µM. For the same compound, the GI50 (U251 CNS) was 2.69 µM, the TGI (U251 CNS) was 10.3 µM and the GI50 (MDA-MB-435) was 1.65 µM. For the same compound, the TGI (MDA-MB-435) was 3.32 µM, the GI50 (CAKI-1 renal) was 1.59 µM and the TGI (CAKI-1 renal) was 4.39 µM. It also gave a GI50 (PC-3 prostate) of 2.16 µM, a TGI (PC-3 prostate) of 6.13 µM and a GI50 (SW-620 colon) of 1.24 µM. The TGI (SW-620 colon) was 10.1 µM, the GI50 (UO-31 renal) was 2.09 µM and the TGI (UO-31 renal) was 12.8 µM. The GI50 (NCI-H522 lung) was 2.18 µM, the TGI (NCI-H522 lung) was 7.89 µM and the GI50 (LOX IMVI melanoma) was 1.86 µM. It also gave a TGI (LOX IMVI melanoma) of 4.1 µM, a GI50 (HL-60(TB) leukemia) of 2.52 µM and a TGI (HL-60(TB) leukemia) of 8.94 µM. The GI50 (KM12 colon) was 2.76 µM, the TGI (KM12 colon) was 16.8 µM and the GI50 (HCC-2998 colon) was 1.77 µM. For the same compound, the TGI (HCC-2998 colon) was 4.18 µM, the GI50 (HOP-62 NSCLC) was 2.61 µM and the TGI (HOP-62 NSCLC) was 9.05 µM. The GI50 (MCF7 breast) was 1.77 µM, the TGI (MCF7 breast) was 6.02 µM and the GI50 (786-0 renal) was 3.2 µM. For the same compound, the TGI (786-0 renal) was 14.2 µM, the GI50 (SF-268 CNS) was 2.54 µM and the TGI (SF-268 CNS) was 12.1 µM. For the same compound, the GI50 (HCT-15 colon) was 2.35 µM, the TGI (HCT-15 colon) was 11.1 µM and the GI50 (SK-OV-3 ovarian) was 3.04 µM. For the same compound, the TGI (SK-OV-3 ovarian) was 11.2 µM, the GI50 (ACHN renal) was 1.78 µM and the TGI (ACHN renal) was 12.2 µM. It also gave a GI50 (BT-549 breast) of 4.12 µM, a TGI (BT-549 breast) of 14.4 µM and a GI50 (SK-MEL-5 melanoma) of 10.6 µM. The TGI (SK-MEL-5 melanoma) was 23.8 µM, the GI50 (OVCAR-8 ovarian) was 2.42 µM and the TGI (OVCAR-8 ovarian) was 7.87 µM. For the same compound, the GI50 (MDA-MB-231 breast) was 2.44 µM, the TGI (MDA-MB-231 breast) was 8.61 µM and the GI50 (NCI-H226 lung) was 3.19 µM. The TGI (NCI-H226 lung) was 11.9 µM, the GI50 (SNB-75 CNS) was 1.68 µM and the TGI (SNB-75 CNS) was 4.66 µM. It also gave a GI50 (DU-145 prostate) of 3.49 µM, a TGI (DU-145 prostate) of 79.2 µM and a GI50 (NCI-H460 lung) of 1.64 µM. It also gave a TGI (NCI-H460 lung) of 8.1 µM, a GI50 (SK-MEL-2 melanoma) of 3.29 µM and a TGI (SK-MEL-2 melanoma) of 12.6 µM. It also gave a GI50 (CCRF-CEM leukemia) of 2.57 µM, a TGI (CCRF-CEM leukemia) of 10.3 µM and a GI50 (TK-10 renal) of 4.19 µM. For the same compound, the TGI (TK-10 renal) was 22.1 µM.
